Results taken from US6020341A, “Enediyne quinone imines and methods of preparation and use thereof” (priority 1997, dated 2000).
Where two headings read alike, the source gives them in different places.

Key:
[1] = tested on: Human acute lymphoblastic T cells (CCRF-CEM); assay: Cytotoxicity, CCRF-CEM; format: cell-based; conditions: for IC50 / IC90: Homo sapiens, CCRF-CEM; for IC90: read-out: Cytotoxic Concentration IC90
Source text: (§1) | cell growth by 50% (IC50) in μM.

[2] = tested on: Lewis lung adenocarcinoma; assay: Anticancer activity in BDF mice bearing Lewis lung adenocarcinoma; format: in vivo, mouse
Description: ^a Tumor (4 × 10^6 cells) was inoculated S.C. Treatment
started on day 4, I.P., QDX5. Control had 4 mice and each dose had 3 mice
Tumor sizes were evaluated on day 7, day 10 and day 14 after beginning of […]

[3] = tested on: HL-60 cells; assay: Growth inhibition, XTT assay, HL-60; format: cell-based; conditions: Homo sapiens
Description: (§2) Cells were platted on day 1, drug was added on day 2, and XTT assays (for HL-60, MT-2, MT-4 leukemic cells) or SRB assays (for 833K and SK-Br-3 solid tumor cells) were carried out on day 5.

[4] = tested on: B-16 melanoma; assay: Antitumor activity against B-16 melanoma in mice (s.c. tumor, i.p. treatment); format: in vivo, mouse
Description: (§3) ^a Tumor (2 × 10^6 cells) was inoculated s.c. Treatment
(§4) started day 4, QD × 5, i.p.; control had nine mice, and each dose
(§5) two mice; tumor size was evaluated on Day 7 after the beginning of
(§6) started day 4, I.P., QD × 5; control had 3 mice, and each dose had
(§7) mice; Tumor size was evaluated on day 7 after the beginning of treatment.

[5] = tested on: sarcoma 180; assay: Antitumor activity against sarcoma 180 in mice (s.c. tumor, i.p. treatment); format: in vivo, mouse
Description: as §3, §4, §5, §6, §7

[6] = tested on: Human testicular teratocarcinoma cells (833K); assay: Cytotoxicity, 833K; format: cell-based; conditions: for IC50 / IC90: Homo sapiens, 833K; for IC90: read-out: Cytotoxic Concentration IC90
Source text: as §1

[7] = tested on: SK-Br-3 solid tumor cells; assay: Growth inhibition, SRB assay, SK-Br-3; format: cell-based; conditions: Homo sapiens, Table 8, SKBr-3, SRB
Description: as §2

[8] = tested on: MT-4 leukemic cells; assay: Growth inhibition, XTT assay, MT-4; format: cell-based; conditions: Table 8, MT-4, XTT
Description: as §2

[9] = tested on: Human breast adenocarcinoma cells (SK-Br-3); assay: Cytotoxicity, SK-Br-3; format: cell-based; conditions: for IC50 / IC90: Homo sapiens; for IC90: read-out: Cytotoxic Concentration IC90
Source text: as §1

[10] = tested on: CCRF-CEM/VM-1 cells; assay: Cytotoxicity, CCRF-CEM/VM-1; format: cell-based, human; conditions: for IC50 / IC90: Homo sapiens, CCRF-CEM; for IC90: read-out: Cytotoxic Concentration IC90
Source text: as §1

[11] = tested on: Chinese hamster lung cells resistant to actinomycin D (DC-3F/ADII); assay: Cytotoxicity, DC-3F/ADII; format: cell-based; conditions: for IC50 / IC90: Cricetulus griseus, DC3F; for IC90: read-out: Cytotoxic Concentration IC90
Source text: as §1

[12] = tested on: MT-2 leukemic cells; assay: Growth inhibition, XTT assay, MT-2; format: cell-based; conditions: Table 8, MT-2, XTT
Description: as §2

[13] = tested on: sarcoma 180; assay: Antitumor activity against sarcoma 180 in B6D2F1 mice, b.i.d.x5; format: in vivo, mouse
Source text: ^a Tumor (3 × 10^6 cells) was inoculated S.C. on day -3.
Antitumor treatment started on day 1, b.i.d.X5, IP.

[14] = tested on: MT2 cells; assay: Cytotoxicity, MT2; format: cell-based; conditions: Table 15, MT2
[15] = Table 6, 0.2 mg/kg i.p. QD×5, day 7
[16] = Table 6, 0.5 mg/kg i.p. QD×5, day 7
[17] = Table 6, 2.0 mg/kg i.p. QD×5, day 7
[18] = Table 3, CCRF-CEM/VM-1, EQI-6 = (1)
[19] = Table 4, DC-3F/ADII, EQI-6 = (1)
[20] = Table 12, 0.15 mg/kg IP b.i.d.X5, Day 7
[21] = Table 12, 0.15 mg/kg IP b.i.d.X5, Day 14
[22] = Table 12, 0.2 mg/kg IP b.i.d.X5, Day 7
[23] = Table 12, 0.2 mg/kg IP b.i.d.X5, Day 14
[24] = Table 12, 0.3 mg/kg IP b.i.d.X5, Day 7
[25] = Table 12, 0.3 mg/kg IP b.i.d.X5, Day 14

Question: Which results are given for `CO[C@@]12[C@H](COC(N)=O)C3=C(C(=O)C(C)=C(N)C3=O)N1C[C@@H]1N[C@@H]12` [mitomycin C]?
Answer: IC50 ([1]; Table 1, CCRF-CEM, read-out: IC50): 140 nM; IC50 ([1]; Table 2, CCRF/CEM, read-out: concentration required to inhibit cell growth by 50% (IC50)): 140 nM; IC50 ([1]; Table 3, CCRF-CEM, read-out: Cytotoxic Concentration IC50): 140 nM; IC90 ([1]; Table 3, CCRF-CEM): 364 nM; IC50 ([1]; Table 14, CCRF-CEM, read-out: Cytotoxic Concentration IC50): 96 nM; IC90 ([1]; Table 14, CCRF-CEM): 370 nM; Cytotoxic Concentration IC95 ([1]; Table 3, CCRF-CEM): 503 nM; ratio of IC50 to EQI-6 (in parentheses) ([1]; Table 3, CCRF-CEM, EQI-6 = (1)): 280 ×; ratio of IC90 to EQI-6 (in parentheses) ([1]; Table 3, CCRF-CEM, EQI-6 = (1)): 165 ×; ratio of IC95 to EQI-6 (in parentheses) ([1]; Table 3, CCRF-CEM, EQI-6 = (1)): 136 ×; Cytotoxic Concentration IC95 ([1]; Table 14, CCRF-CEM): 584 nM; tumor inhibition ([2]; 0.8 mg/kg i.p. QDx5, day 14, Lewis lung adenocarcinoma): 56.3%; Average Tumor Volume (T/C) ([2]; Table 7, 0.4 mg/kg i.p. QDX5, Day 7): 0.490; Average Tumor Volume (T/C) ([2]; Table 7, 0.4 mg/kg i.p. QDX5, Day 10): 0.411; Average Tumor Volume (T/C) ([2]; Table 7, 0.4 mg/kg i.p. QDX5, Day 14): 0.515; Average Tumor Volume (T/C) ([2]; Table 7, 0.8 mg/kg i.p. QDX5, Day 7): 0.356; Average Tumor Volume (T/C) ([2]; Table 7, 0.8 mg/kg i.p. QDX5, Day 10): 0.363; Average Tumor Volume (T/C) ([2]; Table 7, 0.8 mg/kg i.p. QDX5, Day 14): 0.437; mortality ([2]; Table 7, 2.0 mg/kg i.p. QDX5): All of three mice died on day 8 or day 9; Average Tumor Volume (T/C) ([2]; Table 7, 2.0 mg/kg i.p. QDX5, Day 7): 0.169; IC50 ([3]; Table 8, HL-60, XTT, growth inhibition, read-out: IC50): 80 nM; IC50 ([3]; Table 9, HL 60, XTT, 72 h, read-out: Dm): 48 nM; tumor inhibition ([4]; 0.5 mg/kg i.p. QDx5, B-16 melanoma): 24.6%; AVE TUMOR VOLUME (T/C) [4, 15]: 0.952; AWC (average weight change) [4, 15]: -1.9 g; AVE TUMOR VOLUME (T/C) [4, 16]: 0.756; AWC (average weight change) [4, 16]: -0.9 g; AVE TUMOR VOLUME (T/C) [4, 17]: 0.143; AWC (average weight change) [4, 17]: +0.4 g; tumor inhibition ([5]; 0.5 mg/kg i.p. QDx5, sarcoma): 37.5%; AVE TUMOR VOLUME (T/C) [5, 15]: 0.845; AWC (average weight change) [5, 15]: -0.5 g; AVE TUMOR VOLUME (T/C) [5, 16]: 0.625; AWC (average weight change) [5, 16]: -2.3 g; AVE TUMOR VOLUME (T/C) [5, 17]: 0.188; AWC (average weight change) [5, 17]: -1.4 g; IC50 ([6]; Table 2, 833K (Testicular), read-out: concentration required to inhibit cell growth by 50% (IC50)): 318 nM; IC50 ([6]; Table 4, 833k, read-out: Cytotoxic Concentration IC50): 318 nM; IC90 ([6]; Table 4, 833k): 1530 nM; IC50 ([6]; Table 15, 833K, read-out: Cytotoxic Concentration IC50): 394 nM; IC90 ([6]; Table 15, 833K): 2290 nM; Cytotoxic Concentration IC95 ([6]; Table 4, 833k): 2610 nM; ratio of IC50 to EQI-6 (in parentheses) ([6]; Table 4, 833k, EQI-6 = (1)): 45.4 ×; ratio of IC90 to EQI-6 (in parentheses) ([6]; Table 4, 833k, EQI-6 = (1)): 61.2 ×; ratio of IC95 to EQI-6 (in parentheses) ([6]; Table 4, 833k, EQI-6 = (1)): 66.9 ×; Cytotoxic Concentration IC95 ([6]; Table 15, 833K): 4155 nM; IC50 [7]: 300 nM; IC50 [8]: 150 nM; IC50 ([9]; SK-BR-3, Table 2, SK-Br-3 (Breast), read-out: concentration required to inhibit cell growth by 50% (IC50)): 993 nM; IC50 ([9]; SK-BR-3, Table 4, SK-Br-3, read-out: Cytotoxic Concentration IC50): 993 nM; IC90 ([9]; SK-BR-3, Table 4, SK-Br-3): 21800 nM; IC50 ([9]; SK-BR-3, Table 13, SK-Br-3, read-out: Cytotoxic Concentration IC50): 2340 nM; IC90 ([9]; SK-BR-3, Table 13, SK-Br-3): 62900 nM; Cytotoxic Concentration IC95 ([9]; Table 4, SK-Br-3): 62300 nM; ratio of IC50 to EQI-6 (in parentheses) ([9]; Table 4, SK-Br-3, EQI-6 = (1)): 29.2 ×; ratio of IC90 to EQI-6 (in parentheses) ([9]; Table 4, SK-Br-3, EQI-6 = (1)): 16.6 ×; ratio of IC95 to EQI-6 (in parentheses) ([9]; Table 4, SK-Br-3, EQI-6 = (1)): 187.7 ×; Cytotoxic Concentration IC95 ([9]; Table 13, SK-Br-3): 192890 nM; IC50 ([10]; Table 2, CCRF/VM-1 (MDR/TopoII), read-out: concentration required to inhibit cell growth by 50% (IC50)): 216 nM; IC50 ([10]; Table 3, CCRF-CEM/VM-1, read-out: Cytotoxic Concentration IC50): 216 nM; IC90 ([10]; Table 3, CCRF-CEM/VM-1): 895 nM; IC50 ([10]; Table 14, CCRF-CEM/VM-1, read-out: Cytotoxic Concentration IC50): 113 nM; IC90 ([10]; Table 14, CCRF-CEM/VM-1): 675 nM; Cytotoxic Concentration IC95 ([10]; Table 3, CCRF-CEM/VM-1): 1373 nM; ratio of IC50 to EQI-6 (in parentheses) [10, 18]: 113.7 ×; ratio of IC90 to EQI-6 (in parentheses) [10, 18]: 45.5 ×; ratio of IC95 to EQI-6 (in parentheses) [10, 18]: 90.9 ×; Cytotoxic Concentration IC95 ([10]; Table 14, CCRF-CEM/VM-1): 1239 nM; IC50 ([11]; Table 2, DC-3F/ADII (MDR/Actinomycin D), read-out: concentration required to inhibit cell growth by 50% (IC50)): 113 nM; IC50 ([11]; Table 4, DC-3F/ADII, read-out: Cytotoxic Concentration IC50): 113 nM; IC90 ([11]; Table 4, DC-3F/ADII): 380 nM; IC50 ([11]; Table 13, DC-3F/ADII, read-out: Cytotoxic Concentration IC50): 74 nM; IC90 ([11]; Table 13, DC-3F/ADII): 264 nM; Cytotoxic Concentration IC95 ([11]; Table 4, DC-3F/ADII): 575 nM; ratio of IC50 to EQI-6 (in parentheses) [11, 19]: 92.2 ×; ratio of IC90 to EQI-6 (in parentheses) [11, 19]: 24.7 ×; ratio of IC95 to EQI-6 (in parentheses) [11, 19]: 26.9 ×; Cytotoxic Concentration IC95 ([11]; Table 13, DC-3F/ADII): 406 nM; IC50 [12]: 100 nM; AWC (average weight change) [13, 20]: -0.6 g; Avg Tumor Volume (T/C) [13, 20]: 0.650; AWC (average weight change) [13, 21]: +0.2 g; Avg Tumor Volume (T/C) [13, 21]: 0.814; AWC (average weight change) [13, 22]: +0.8 g; Avg Tumor Volume (T/C) [13, 22]: 0.538; AWC (average weight change) [13, 23]: -0.6 g; Avg Tumor Volume (T/C) [13, 23]: 0.485; AWC (average weight change) [13, 24]: -1.8 g; Avg Tumor Volume (T/C) [13, 24]: 0.249; AWC (average weight change) [13, 25]: -1.0 g; Avg Tumor Volume (T/C) [13, 25]: 0.394; IC50 ([14]; Homo sapiens, read-out: Cytotoxic Concentration IC50): 169 nM; IC90 ([14]; Homo sapiens, read-out: Cytotoxic Concentration IC90): 398 nM; Cytotoxic Concentration IC95 [14]: 532 nM
